Measurements published in ChEMBL document CHEMBL1201862, “PubChem BioAssay data set” (2004).
Calls of active or inactive are those of the source.

How the values were obtained:
[1] = Luminescence Cell-Based Dose Confirmation HTS to Identify Activators of 5'UTR Stem-Loop Driven Alpha-Synuclein mRNA Translation in H4 Neuroglioblastoma Cells. [Related pubchem assays: 1829 (Project Summary), 1814 (Primary HTS)]; type: functional
[2] = Luminescence Cell-Based Dose Response HTS to Identify Activators of Luciferase Translation or Activity in H4 […] Cells. [Related pubchem assays: 1829 (Project Summary), 1814 (Primary HTS)]; type: functional
HEK293 [3] = assay: optical interference in Abeta FP readout, dose response, artefact control for IDE activator project, biochemical, fluorescence polarization (AID 588442); type: functional, cell-based; settings: Homo sapiens
Insulin-degrading enzyme [4] = target: T1, Insulin-degrading enzyme (Homo sapiens, UniProt P14735); assay: recombinant IDE activation, cell-free – biochemical, fluorescence polarization, counter-screen for IDE activator project, dose response (AID 588681)
T1 sequence (P14735 whole entry): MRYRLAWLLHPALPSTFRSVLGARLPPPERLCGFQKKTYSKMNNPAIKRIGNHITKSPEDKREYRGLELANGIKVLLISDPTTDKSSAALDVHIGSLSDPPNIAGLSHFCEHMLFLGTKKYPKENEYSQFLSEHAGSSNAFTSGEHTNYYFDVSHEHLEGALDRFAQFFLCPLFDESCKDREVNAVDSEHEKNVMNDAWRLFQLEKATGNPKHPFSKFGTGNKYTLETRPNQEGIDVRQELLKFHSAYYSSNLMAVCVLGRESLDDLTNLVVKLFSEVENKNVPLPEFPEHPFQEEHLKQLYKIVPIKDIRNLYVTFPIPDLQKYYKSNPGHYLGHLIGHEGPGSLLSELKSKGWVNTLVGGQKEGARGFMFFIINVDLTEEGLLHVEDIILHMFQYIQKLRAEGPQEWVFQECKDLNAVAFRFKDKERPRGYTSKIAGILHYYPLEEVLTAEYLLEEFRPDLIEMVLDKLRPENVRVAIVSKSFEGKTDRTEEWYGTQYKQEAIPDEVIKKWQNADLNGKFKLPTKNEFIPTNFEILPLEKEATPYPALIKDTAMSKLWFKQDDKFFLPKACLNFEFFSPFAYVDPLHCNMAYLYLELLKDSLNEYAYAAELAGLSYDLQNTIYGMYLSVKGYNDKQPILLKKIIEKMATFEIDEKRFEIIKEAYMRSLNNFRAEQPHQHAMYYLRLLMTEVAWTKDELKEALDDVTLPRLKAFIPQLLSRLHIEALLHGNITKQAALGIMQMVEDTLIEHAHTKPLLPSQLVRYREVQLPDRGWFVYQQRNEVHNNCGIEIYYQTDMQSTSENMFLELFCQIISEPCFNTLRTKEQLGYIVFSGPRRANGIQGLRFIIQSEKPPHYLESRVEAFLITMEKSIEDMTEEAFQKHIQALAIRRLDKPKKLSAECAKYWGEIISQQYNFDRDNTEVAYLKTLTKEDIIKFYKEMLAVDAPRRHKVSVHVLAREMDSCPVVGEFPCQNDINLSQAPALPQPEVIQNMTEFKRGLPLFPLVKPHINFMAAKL

HEK293 [5] = assay: membrane integrity loss in HEK cells – cell-based, fluorescence, cytotoxicity control for IDE activator project, dose response (AID 588440); type: functional; settings: Homo sapiens;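 note: cytotoxicity by LDH release measuring loss of membrane integrity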
H4 = assay: Luminescence Cell-Based Dose Response HTS to Identify Activators of 5'UTR Stem-Loop Driven Prion Protein mRNA Translation in H4 Neuroglioblastoma Cells. [Related pubchem assays: 1829 (Project Summary), 1814 (Primary HTS)]; type: functional; settings: Homo sapiens
Insulin-degrading enzyme [6] = target: T1, Insulin-degrading enzyme; assay: cellular IDE activation of Abeta substrate cleavage – fluorescence polarization, HEK cells, dose response (AID 588439); type: functional, cell-based
Beta Lactamase = Beta Lactamase (Pseudomonas aeruginosa, UniProt Q932Y6); assay: BLA reporter interference, concentration series – BLA reporter cells, FRET fluorescence, artefact control for TLR9-MyD88 binding inhibitor project, dose response (AID 588341); type: cell-based;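 note: cell based assay in CHO-K1 cells stably expressing beta-lactamase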
Beta Lactamase, sequence (Q932Y6 whole entry, the tested form may be a part): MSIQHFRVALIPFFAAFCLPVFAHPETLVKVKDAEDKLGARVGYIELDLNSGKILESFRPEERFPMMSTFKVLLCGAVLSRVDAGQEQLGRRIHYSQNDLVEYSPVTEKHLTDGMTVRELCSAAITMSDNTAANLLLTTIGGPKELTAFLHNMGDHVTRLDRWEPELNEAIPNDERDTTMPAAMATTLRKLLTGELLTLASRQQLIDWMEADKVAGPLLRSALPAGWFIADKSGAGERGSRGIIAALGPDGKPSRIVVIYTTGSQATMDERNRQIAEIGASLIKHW

CHO = CHO cell viability loss, potency – luminescence, cytotoxicity control for TLR9-MyD88 binding inhibitor project, dose response (AID 588339); type: functional, cell-based, hamster; settings: Cricetulus griseus;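 note: CHO cells stably coexpressing TLR9 and MyD88 fusions from primary screen; compound exposure lasted 48 hours before viability readout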
[7] = viability loss in THP-1 monocytes – THP-1 cells, cytotoxicity control for Vif-APOBEC3G degradation inhibitor project, dose response (AID 1117359); type: functional; settings: THP-1
[8] = target: T2, Voltage-gated N-type calcium channel alpha-1B subunit/Amyloid beta A4 precursor protein-binding family A member 1 (Homo sapiens, UniProt Q00975+Q02410); type: protein assay
T2 sequence (Q00975 whole entry): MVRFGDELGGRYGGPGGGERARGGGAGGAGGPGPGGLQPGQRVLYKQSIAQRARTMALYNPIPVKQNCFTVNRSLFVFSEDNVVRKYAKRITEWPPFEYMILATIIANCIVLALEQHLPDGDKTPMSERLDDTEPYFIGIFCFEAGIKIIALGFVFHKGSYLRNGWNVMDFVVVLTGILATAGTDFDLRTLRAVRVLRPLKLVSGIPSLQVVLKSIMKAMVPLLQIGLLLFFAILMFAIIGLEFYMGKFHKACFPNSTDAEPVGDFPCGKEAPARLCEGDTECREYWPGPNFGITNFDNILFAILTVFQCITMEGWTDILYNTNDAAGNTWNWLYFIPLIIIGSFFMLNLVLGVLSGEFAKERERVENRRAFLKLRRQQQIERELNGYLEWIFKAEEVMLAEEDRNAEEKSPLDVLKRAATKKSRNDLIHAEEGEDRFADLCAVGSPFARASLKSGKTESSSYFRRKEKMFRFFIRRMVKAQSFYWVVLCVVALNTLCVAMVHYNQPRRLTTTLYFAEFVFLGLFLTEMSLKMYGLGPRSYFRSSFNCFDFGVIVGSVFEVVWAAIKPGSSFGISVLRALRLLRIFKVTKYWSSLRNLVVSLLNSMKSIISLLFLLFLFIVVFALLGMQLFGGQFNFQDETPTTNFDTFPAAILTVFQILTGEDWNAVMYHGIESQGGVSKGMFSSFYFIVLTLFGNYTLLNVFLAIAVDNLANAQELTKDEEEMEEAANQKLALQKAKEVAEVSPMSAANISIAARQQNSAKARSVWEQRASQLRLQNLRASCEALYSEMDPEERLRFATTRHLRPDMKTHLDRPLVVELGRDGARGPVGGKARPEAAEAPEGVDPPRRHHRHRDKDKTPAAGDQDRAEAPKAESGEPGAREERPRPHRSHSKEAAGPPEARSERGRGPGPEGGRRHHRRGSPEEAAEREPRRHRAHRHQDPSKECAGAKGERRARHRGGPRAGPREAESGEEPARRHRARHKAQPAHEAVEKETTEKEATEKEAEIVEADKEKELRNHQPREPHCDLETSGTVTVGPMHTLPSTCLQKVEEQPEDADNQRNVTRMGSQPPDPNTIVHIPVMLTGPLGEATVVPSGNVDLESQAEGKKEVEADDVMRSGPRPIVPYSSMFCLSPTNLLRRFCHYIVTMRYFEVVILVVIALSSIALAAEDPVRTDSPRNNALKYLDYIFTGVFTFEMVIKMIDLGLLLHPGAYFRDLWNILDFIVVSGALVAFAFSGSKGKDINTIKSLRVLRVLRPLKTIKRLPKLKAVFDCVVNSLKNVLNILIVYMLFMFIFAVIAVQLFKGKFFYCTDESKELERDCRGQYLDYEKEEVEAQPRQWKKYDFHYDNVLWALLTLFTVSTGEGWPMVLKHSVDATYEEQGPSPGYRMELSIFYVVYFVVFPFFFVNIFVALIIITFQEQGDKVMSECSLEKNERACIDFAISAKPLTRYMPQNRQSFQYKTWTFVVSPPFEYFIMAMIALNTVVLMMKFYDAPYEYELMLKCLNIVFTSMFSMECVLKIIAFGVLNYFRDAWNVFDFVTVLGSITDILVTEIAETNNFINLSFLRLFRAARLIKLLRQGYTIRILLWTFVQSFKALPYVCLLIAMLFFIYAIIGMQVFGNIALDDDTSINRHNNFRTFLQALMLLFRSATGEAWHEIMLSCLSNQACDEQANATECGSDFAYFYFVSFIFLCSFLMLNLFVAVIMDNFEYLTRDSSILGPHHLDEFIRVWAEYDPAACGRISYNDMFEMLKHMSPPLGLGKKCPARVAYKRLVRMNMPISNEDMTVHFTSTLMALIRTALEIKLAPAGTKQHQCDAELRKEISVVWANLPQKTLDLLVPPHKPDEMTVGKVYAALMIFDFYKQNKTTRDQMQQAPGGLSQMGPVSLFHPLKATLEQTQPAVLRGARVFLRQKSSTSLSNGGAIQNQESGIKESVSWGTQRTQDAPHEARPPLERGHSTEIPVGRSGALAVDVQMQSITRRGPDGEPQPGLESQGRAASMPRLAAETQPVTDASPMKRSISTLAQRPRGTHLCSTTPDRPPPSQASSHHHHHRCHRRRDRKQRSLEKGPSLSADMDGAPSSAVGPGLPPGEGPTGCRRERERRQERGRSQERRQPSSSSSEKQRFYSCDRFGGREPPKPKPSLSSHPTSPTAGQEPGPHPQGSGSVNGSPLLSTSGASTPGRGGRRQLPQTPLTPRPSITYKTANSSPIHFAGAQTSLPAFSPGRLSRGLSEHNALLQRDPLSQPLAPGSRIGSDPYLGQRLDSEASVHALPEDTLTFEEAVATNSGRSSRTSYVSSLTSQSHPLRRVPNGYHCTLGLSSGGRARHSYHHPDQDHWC
T2 sequence (Q02410 whole entry): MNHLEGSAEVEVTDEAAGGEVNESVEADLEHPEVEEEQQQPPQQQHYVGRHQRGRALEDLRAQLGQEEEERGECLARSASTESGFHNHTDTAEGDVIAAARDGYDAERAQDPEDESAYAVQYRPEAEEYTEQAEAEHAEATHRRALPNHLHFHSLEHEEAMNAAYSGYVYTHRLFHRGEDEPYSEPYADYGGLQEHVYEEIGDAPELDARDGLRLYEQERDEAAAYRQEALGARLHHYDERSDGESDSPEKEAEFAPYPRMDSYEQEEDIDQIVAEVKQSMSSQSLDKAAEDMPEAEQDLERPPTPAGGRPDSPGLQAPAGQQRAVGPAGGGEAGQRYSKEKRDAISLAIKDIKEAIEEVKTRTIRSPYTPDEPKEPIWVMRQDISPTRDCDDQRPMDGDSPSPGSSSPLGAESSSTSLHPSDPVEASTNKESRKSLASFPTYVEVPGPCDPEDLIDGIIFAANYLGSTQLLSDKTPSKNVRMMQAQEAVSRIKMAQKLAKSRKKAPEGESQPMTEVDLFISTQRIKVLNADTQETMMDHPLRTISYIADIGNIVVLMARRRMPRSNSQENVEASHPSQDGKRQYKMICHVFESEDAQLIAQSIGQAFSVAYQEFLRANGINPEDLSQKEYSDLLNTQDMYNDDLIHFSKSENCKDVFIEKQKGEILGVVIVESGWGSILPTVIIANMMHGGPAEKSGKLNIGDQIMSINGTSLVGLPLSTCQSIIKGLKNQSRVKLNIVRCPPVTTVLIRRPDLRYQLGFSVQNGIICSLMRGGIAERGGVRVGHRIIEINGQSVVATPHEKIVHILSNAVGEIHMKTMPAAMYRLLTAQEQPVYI

[9] = target: Induced myeloid leukemia cell differentiation protein Mcl-1 (Homo sapiens, UniProt Q07820); type: functional
Induced myeloid leukemia cell differentiation protein Mcl-1, sequence (Q07820 whole entry): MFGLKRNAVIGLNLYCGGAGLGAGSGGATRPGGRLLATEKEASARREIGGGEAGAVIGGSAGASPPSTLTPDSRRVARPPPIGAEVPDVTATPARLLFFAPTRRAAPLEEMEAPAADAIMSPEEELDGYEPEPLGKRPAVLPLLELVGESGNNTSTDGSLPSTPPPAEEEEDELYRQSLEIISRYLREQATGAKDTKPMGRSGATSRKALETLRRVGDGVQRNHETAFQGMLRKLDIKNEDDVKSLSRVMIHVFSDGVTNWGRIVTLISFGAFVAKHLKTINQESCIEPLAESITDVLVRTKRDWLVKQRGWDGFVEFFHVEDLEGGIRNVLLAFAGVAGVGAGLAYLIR

[10] = target: T2, Voltage-gated N-type calcium channel alpha-1B subunit/Amyloid beta A4 precursor protein-binding family A member 1; type: protein assay; remark: listed apart in the source
[11] = target: T3, Short transient receptor potential channel 4 (Mus musculus, UniProt Q9QUQ5); assay: potency of mouse TRPC4 calcium flux blockers – cell-based, HEK293 TRPC4/mu-opioid, DAMGO stimulus, Fluo-4, dose response (AID 492994); type: functional
T3 sequence (Q9QUQ5 whole entry): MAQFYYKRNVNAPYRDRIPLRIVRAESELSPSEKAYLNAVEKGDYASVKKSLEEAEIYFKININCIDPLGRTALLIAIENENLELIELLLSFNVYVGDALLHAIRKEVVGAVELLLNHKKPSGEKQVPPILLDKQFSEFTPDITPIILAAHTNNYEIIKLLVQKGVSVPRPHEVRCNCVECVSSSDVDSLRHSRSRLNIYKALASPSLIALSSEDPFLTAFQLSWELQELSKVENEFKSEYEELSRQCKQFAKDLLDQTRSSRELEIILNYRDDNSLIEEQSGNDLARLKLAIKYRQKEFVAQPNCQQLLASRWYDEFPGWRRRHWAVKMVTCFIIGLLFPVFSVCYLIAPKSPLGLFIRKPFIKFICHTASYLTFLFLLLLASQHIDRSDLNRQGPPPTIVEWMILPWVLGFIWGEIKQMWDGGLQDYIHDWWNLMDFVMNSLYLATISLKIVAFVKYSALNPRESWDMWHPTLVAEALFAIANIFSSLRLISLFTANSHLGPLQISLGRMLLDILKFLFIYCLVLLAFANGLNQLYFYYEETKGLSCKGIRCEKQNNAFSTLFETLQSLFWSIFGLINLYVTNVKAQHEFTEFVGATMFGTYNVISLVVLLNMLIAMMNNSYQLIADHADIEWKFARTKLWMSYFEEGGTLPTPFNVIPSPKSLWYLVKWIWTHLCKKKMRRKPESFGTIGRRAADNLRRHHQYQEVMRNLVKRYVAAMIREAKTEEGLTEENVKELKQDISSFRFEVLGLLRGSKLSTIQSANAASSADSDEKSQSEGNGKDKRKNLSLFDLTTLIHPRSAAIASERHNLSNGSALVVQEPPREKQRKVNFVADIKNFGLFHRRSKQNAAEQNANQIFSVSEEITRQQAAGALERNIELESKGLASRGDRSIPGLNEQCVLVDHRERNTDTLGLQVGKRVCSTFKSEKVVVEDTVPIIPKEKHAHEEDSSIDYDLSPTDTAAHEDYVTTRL

[12] = target: Short transient receptor potential channel 6 (Mus musculus, UniProt Q61143); assay: mouse TRPC6 channel blockers, concentration series – HEK293 cells, membrane potential dye, IC50, selectivity assay for selective TRPC4 inhibitor project, dose response (AID 492987); type: functional, cell-based
Short transient receptor potential channel 6, sequence (Q61143 whole entry): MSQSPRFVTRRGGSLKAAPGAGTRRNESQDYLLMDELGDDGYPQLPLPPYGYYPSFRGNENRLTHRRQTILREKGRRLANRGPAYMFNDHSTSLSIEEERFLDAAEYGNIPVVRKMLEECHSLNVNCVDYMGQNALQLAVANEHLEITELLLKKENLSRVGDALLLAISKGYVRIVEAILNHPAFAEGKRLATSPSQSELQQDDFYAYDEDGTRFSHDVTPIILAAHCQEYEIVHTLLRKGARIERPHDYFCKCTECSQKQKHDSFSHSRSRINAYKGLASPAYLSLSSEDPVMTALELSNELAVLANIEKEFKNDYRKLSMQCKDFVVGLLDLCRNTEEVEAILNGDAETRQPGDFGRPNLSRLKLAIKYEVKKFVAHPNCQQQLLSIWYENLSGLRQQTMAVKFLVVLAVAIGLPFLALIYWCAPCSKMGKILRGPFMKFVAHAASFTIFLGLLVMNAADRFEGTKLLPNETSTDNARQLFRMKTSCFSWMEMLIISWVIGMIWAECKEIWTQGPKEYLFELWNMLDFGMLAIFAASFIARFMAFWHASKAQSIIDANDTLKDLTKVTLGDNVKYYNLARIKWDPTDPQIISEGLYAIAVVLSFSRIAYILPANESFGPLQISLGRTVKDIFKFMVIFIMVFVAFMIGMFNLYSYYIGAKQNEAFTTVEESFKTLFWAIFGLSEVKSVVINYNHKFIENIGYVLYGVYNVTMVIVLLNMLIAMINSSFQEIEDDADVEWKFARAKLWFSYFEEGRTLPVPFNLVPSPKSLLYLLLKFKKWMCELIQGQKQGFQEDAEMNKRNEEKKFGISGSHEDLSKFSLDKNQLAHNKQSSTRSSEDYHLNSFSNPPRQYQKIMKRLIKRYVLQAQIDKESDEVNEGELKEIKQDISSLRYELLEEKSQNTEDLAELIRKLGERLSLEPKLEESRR

[13] = target: T3, Short transient receptor potential channel 4; assay: SAR Analysis for the identification of selective inhibits of the transient receptor potential cation channel C4 (TRPC4): Automated Electrophysiology_2. [Related pubchem assays (depositor defined):AID2256]; type: functional

For `Cc1ccc(NC(=O)C2C3C=CC4(CN(Cc5cccnc5)C(=O)C24)O3)cc1` (stereo not drawn), the EC50 [1] was > 120 µM (not active), the EC50 [2] was 11.9 µM (active) and the EC50 (HEK293 [3]) was > 55.9 µM (inactive). For the same compound, the EC50 (Insulin-degrading enzyme [4]) was > 54.7 µM (inactive), the IC50 (HEK293 [5]) was > 89.2 µM (inactive) and the EC50 (H4) was 14 µM (active). For the same compound, the EC50 (Insulin-degrading enzyme [6]) was > 54.7 µM (inactive).
For `CC[C@H](C)/C=C(C)/C=C/C1=CC2=CC(=O)[C@]3(C)OC(=O)[C@@H](C(C)=O)[C@@H]3C2=CO1`, the IC50 (Beta Lactamase) was 8.86 µM (active), the IC50 (CHO) was > 49.7 µM (inactive) and the CC50 [7] was > 40 µM (active).
For `Cc1cc2nc(/C=C/c3nc4cc(C)c(C)cc4[nH]3)[nH]c2cc1C`, the IC50 [8] was > 50 µM (inactive), the IC50 (Beta Lactamase) was 20.9 µM (inactive) and the IC50 [9] was 3.67 µM (active). For the same compound, the IC50 [10] was 18.5 µM (active) and the IC50 (CHO) was > 49.7 µM (inactive).
For `Cc1ccc2nc(N3CCCCCC3)cc(C)c2c1`, the IC50 [11] was 1.3 µM (active), the IC50 [12] was 12.8 µM (active) and the IC50 [13] was 0.9 µM (active).
